{"source": "paper PMC5004101", "about": "“Broad Spectrum Anti-Influenza Agents by Inhibiting Self-Association of Matrix Protein 1” (Scientific Reports, 2016)", "molecules": {"B1": {"name": "matrix protein 1 (M1) N-terminal domain, residues 1-165, of influenza A virus H1N1 A/WSN/33 (domain or fragment)", "chain": "MSLLTEVETYVLSIVPSGPLKAEIAQRLEDVFAGKNTDLEVLMEWLKTRPILSPLTKGILGFVFTLTVPSERGLQRRRFVQNALNGNGDPNNMDKAVKLYRKLKREITFHGAKEIALSYSAGALASCMGLIYNRMGAVTTEVAFGLVCATCEQIADSQHRSHRQM", "notes": "also called N1-165-domain of WSN/33; biotinylated M1"}}, "key": {"[1]": {"molecular_target": "T1, M1 (matrix protein 1), recombinant N1-165 domain of WSN/33 (Influenza A virus (A/Wilson-Smith/1933(H1N1)), UniProt P05777)", "T1 construct": "gene M", "assay": "surface plasmon resonance, biotinylated M1 on NeutrAvidin chip", "format": "binding"}, "[2]": {"molecular_target": "T1, M1 (matrix protein 1), recombinant N1-165 domain of WSN/33 (Influenza A virus (A/Wilson-Smith/1933(H1N1)), UniProt P05777)", "assay": "bio-layer interferometry, inhibition of M1-M1 self-association", "format": "binding"}, "[3]": {"molecular_target": "the molecule itself", "assay": "SPR; […], room temperature, pH 7.4; […]"}}}
{"molecule": "CCCc1c(OCCCOc2ccc(OCC(=O)O)cc2)ccc(C(C)=O)c1O", "note": "[PHE]", "values": [{"measurement": "Kd", "setting": "[1]", "value": "870 ± 150", "unit": "nM"}, {"measurement": "IC50", "setting": "[2]", "value": "~6000", "unit": "nM"}]}
{"molecule": "B1", "values": [{"measurement": "Kd", "setting": "[3]", "value": "0.05 ± 0.03", "unit": "nM"}]}
